The values below are quoted from earlier work in patent US20080069886A1, “Spironolactone nanoparticles, compositions and methods related thereto” (JAGOTEC AG, priority 2001, published 2008).

`CC(=O)S[C@@H]1CC2=CC(=O)CC[C@]2(C)[C@H]2CC[C@@]3(C)[C@@H](CC[C@@]34CCC(=O)O4)[C@H]12` [Spironolactone]: the solubility in water was 2.8 mg/100 ml.
